Patent US10131652B2, “Pyrimidinyloxy benzene derivatives as herbicides” (E. I. DU PONT DE NEMOURS AND COMPANY, priority 2014, dated 2018)

Key:
Format in all cases: in vivo
[1] = system: Italian ryegrass (Lolium multiflorum); assay: Test B pre-/postemergence plant response
Method in brief: (§1)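 Scoring used a 0–100 scale (100 = complete control) by visual comparison with untreated plants after approximately 10 days in the greenhouse. Compounds, in surfactant-containing non-phytotoxic solvent, were sprayed onto soil at planting or onto 2–10 cm seedlings.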

[2] = system: barnyardgrass (Echinochloa crus-galli); assay: Test B pre-/postemergence plant response
Method in brief: as §1

corn (Zea mays) = assay: Test B pre-/postemergence plant response
Method in brief: as §1

[3] = system: giant foxtail (Setaria faberii); assay: Test B pre-/postemergence plant response
Method in brief: as §1

kochia (Kochia scoparia) = assay: Test B pre-/postemergence plant response
Method in brief: as §1

[4] = system: pigweed (Amaranthus retroflexus); assay: Test B pre-/postemergence plant response
Method in brief: as §1

[5] = system: ragweed (common ragweed, Ambrosia elatior); assay: Test B pre-/postemergence plant response
Method in brief: as §1

[6] = system: wheat (Triticum aestivum); assay: Test B pre-/postemergence plant response
Method in brief: as §1

[7] = system: blackgrass (Alopecurus myosuroides); assay: Test B postemergence plant response
Method in brief: (§2)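 Pots, loam soil + sand; postemergence treatment at 1–2 leaf stage, 2–10 cm; greenhouse ~10 d; visual injury score 0 (none) to 100 (complete control) relative to untreated controls.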

[8] = system: galium (catchweed bedstraw, Galium aparine); assay: Test B postemergence plant response
Method in brief: as §2

[9] = system: barnyardgrass (Echinochloa crus-galli); assay: Test C flooded paddy test plant response; settings: Flood, 250 g ai/ha; scale of 0 to 100 where 0 is no effect and 100 is complete control; 13 to 15 days
Method in brief: (§3)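 Readout is a visual 0–100 score (100 = complete control) versus controls at 13–15 days. Plants at 2-leaf stage, flooded to 3 cm, treated through paddy water.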

[10] = system: ducksalad (Heteranthera limosa); assay: Test C flooded paddy test plant response; settings: Flood, 250 g ai/ha; scale of 0 to 100 where 0 is no effect and 100 is complete control; 13 to 15 days
Method in brief: as §3

rice (Oryza sativa) = assay: Test C flooded paddy test plant response; settings: Flood, 250 g ai/ha; scale of 0 to 100 where 0 is no effect and 100 is complete control; 13 to 15 days
Method in brief: as §3

[11] = system: small-flower umbrella sedge (Cyperus difformis); assay: Test C flooded paddy test plant response; settings: Flood, 250 g ai/ha; scale of 0 to 100 where 0 is no effect and 100 is complete control; 13 to 15 days
Method in brief: as §3

[12] = 31 g ai/ha, Preemergence, 0 to 100 scale where 0 is no effect and 100 is complete control
[13] = 125 g ai/ha, postemergence, 0 to 100 scale, 0 no effect, 100 complete control
[14] = Postemergence, 31 g ai/ha, 0 to 100 scale (0 no effect, 100 complete control)
[15] = Preemergence, 125 g ai/ha, 0 to 100 scale (0 no effect, 100 complete control)
[16] = Postemergence, 500 g ai/ha, 0 to 100 scale (0 no effect, 100 complete control)
[17] = Preemergence, 500 g ai/ha, 0 to 100 scale where 0 is no effect and 100 is complete control
[18] = Postemergence, 1000 g ai/ha, 0 to 100 scale (0 no effect, 100 complete control)
[19] = Preemergence, 1000 g ai/ha, 0 to 100 scale (0 no effect, 100 complete control)

Compound	Plant response rating, Ryegrass, Italian [1, 13]	Ryegrass, Italian plant response rating [1, 15]	Plant response rating, Barnyardgrass [2, 13]	Barnyardgrass plant response rating [2, 15]	Plant response rating, Corn (corn (Zea mays); [13])	Plant response rating, Foxtail, Giant [3, 13]	Foxtail, Giant plant response rating [3, 15]	Plant response rating, Kochia (kochia (Kochia scoparia); [13])	Kochia plant response rating (kochia (Kochia scoparia); [15])	Plant response rating, Pigweed [4, 13]	Pigweed plant response rating [4, 15]	Plant response rating, Ragweed [5, 13]	Ragweed plant response rating [5, 15]	Plant response rating, Wheat [6, 13]	Plant response rating, Blackgrass [7, 13]	Plant response rating, Galium [8, 13]	Barnyardgrass plant response rating [9]	Ducksalad plant response rating [10]	Rice plant response rating (rice (Oryza sativa))	Sedge, Umbrella plant response rating [11]	further results
Fc1cccc(Oc2ncc(Cl)cn2)c1-c1cnccn1 [Compound 165]	0	0	20	10	0	20	10	40	60	50	80	60	50	0	30	40	0	0	0	0	Plant response rating, Ryegrass, Italian [1, 12]: 0; Plant response rating, Ryegrass, Italian [1, 14]: 0; Plant response rating, Barnyardgrass [2, 12]: 0; Plant response rating, Barnyardgrass [2, 14]: 0; Plant response rating, Corn (corn (Zea mays); [14]): 0; Plant response rating, Foxtail, Giant [3, 12]: 0; Plant response rating, Foxtail, Giant [3, 14]: 10; Plant response rating, Kochia (kochia (Kochia scoparia); [12]): 0; Plant response rating, Kochia (kochia (Kochia scoparia); [14]): 20; Plant response rating, Pigweed [4, 12]: 30; Plant response rating, Pigweed [4, 14]: 30; Plant response rating, Ragweed [5, 12]: 20; Plant response rating, Ragweed [5, 14]: 30; Plant response rating, Wheat [6, 14]: 0; Plant response rating, Blackgrass [7, 14]: 20; Plant response rating, Galium [8, 14]: 20
Fc1cnc(Oc2cccc(F)c2-c2cnccn2)nc1 [Compound 166]	0	0	0	0	10	0	0	0	0	30	60	30	20	0	0	30	0	0	0	0	Plant response rating, Ryegrass, Italian [1, 12]: 0; Plant response rating, Ryegrass, Italian [1, 14]: 0; Plant response rating, Barnyardgrass [2, 12]: 0; Plant response rating, Barnyardgrass [2, 14]: 0; Plant response rating, Corn (corn (Zea mays); [14]): 0; Plant response rating, Foxtail, Giant [3, 12]: 0; Plant response rating, Foxtail, Giant [3, 14]: 0; Plant response rating, Kochia (kochia (Kochia scoparia); [12]): 0; Plant response rating, Kochia (kochia (Kochia scoparia); [14]): 0; Plant response rating, Pigweed [4, 12]: 40; Plant response rating, Pigweed [4, 14]: 20; Plant response rating, Ragweed [5, 12]: 0; Plant response rating, Ragweed [5, 14]: 10; Plant response rating, Wheat [6, 14]: 0; Plant response rating, Blackgrass [7, 14]: 0; Plant response rating, Galium [8, 14]: 20
Cc1c(-c2ccccc2Oc2ncc(Cl)cn2)noc1C(F)(F)F [Compound 167]	0	0	0	0	0	0	0	10	0	10	0	0	0	10	0	10	0	0	0	0	Plant response rating, Ryegrass, Italian [1, 16]: 0; Plant response rating, Ryegrass, Italian [1, 17]: 0; Plant response rating, Barnyardgrass [2, 16]: 10; Plant response rating, Barnyardgrass [2, 17]: 10; Plant response rating, Corn (corn (Zea mays); [16]): 20; Plant response rating, Foxtail, Giant [3, 16]: 10; Plant response rating, Foxtail, Giant [3, 17]: 30; Plant response rating, Kochia (kochia (Kochia scoparia); [16]): 60; Plant response rating, Kochia (kochia (Kochia scoparia); [17]): 30; Plant response rating, Pigweed [4, 16]: 70; Plant response rating, Pigweed [4, 17]: 20; Plant response rating, Ragweed [5, 16]: 0; Plant response rating, Ragweed [5, 17]: 10; Plant response rating, Wheat [6, 16]: 20; Plant response rating, Blackgrass [7, 16]: 10; Plant response rating, Galium [8, 16]: 60
Cc1cc(-c2ccccc2Oc2ncc(Cl)cn2)sn1 [Compound 171]	–	–	–	–	–	–	–	–	–	–	–	–	–	–	–	–	0	0	0	0	Plant response rating, Ryegrass, Italian [1, 18]: 10; Plant response rating, Ryegrass, Italian [1, 19]: 10; Plant response rating, Barnyardgrass [2, 18]: 30; Plant response rating, Barnyardgrass [2, 19]: 70; Plant response rating, Corn (corn (Zea mays); [18]): 10; Plant response rating, Foxtail, Giant [3, 18]: 100; Plant response rating, Foxtail, Giant [3, 19]: 100; Plant response rating, Kochia (kochia (Kochia scoparia); [18]): 100; Plant response rating, Kochia (kochia (Kochia scoparia); [19]): 90; Plant response rating, Pigweed [4, 18]: 100; Plant response rating, Pigweed [4, 19]: 100; Plant response rating, Ragweed [5, 18]: 30; Plant response rating, Ragweed [5, 19]: 0; Plant response rating, Wheat [6, 18]: 30; Plant response rating, Blackgrass [7, 18]: 80; Plant response rating, Galium [8, 18]: 100
Cc1cnc(Oc2ccccc2-c2cc(C(C)(F)F)on2)nc1 [Compound 173]	20	20	70	90	40	90	100	100	100	80	100	60	70	0	70	90	0	80	0	60	Plant response rating, Ryegrass, Italian [1, 12]: 0; Plant response rating, Ryegrass, Italian [1, 14]: 0; Plant response rating, Barnyardgrass [2, 12]: 60; Plant response rating, Barnyardgrass [2, 14]: 30; Plant response rating, Corn (corn (Zea mays); [14]): 10; Plant response rating, Foxtail, Giant [3, 12]: 50; Plant response rating, Foxtail, Giant [3, 14]: 30; Plant response rating, Kochia (kochia (Kochia scoparia); [12]): 70; Plant response rating, Kochia (kochia (Kochia scoparia); [14]): 70; Plant response rating, Pigweed [4, 12]: 80; Plant response rating, Pigweed [4, 14]: 60; Plant response rating, Ragweed [5, 12]: 10; Plant response rating, Ragweed [5, 14]: 40; Plant response rating, Wheat [6, 14]: 0; Plant response rating, Blackgrass [7, 14]: 30; Plant response rating, Galium [8, 14]: 50
Clc1cnc(Oc2ccccc2-c2cc(Cl)ccn2)nc1 [Compound 174]	0	0	10	0	0	0	40	70	0	50	80	30	0	0	50	70	0	0	0	0	Plant response rating, Ryegrass, Italian [1, 12]: 0; Plant response rating, Ryegrass, Italian [1, 14]: 0; Plant response rating, Barnyardgrass [2, 12]: 0; Plant response rating, Barnyardgrass [2, 14]: 0; Plant response rating, Corn (corn (Zea mays); [14]): 0; Plant response rating, Foxtail, Giant [3, 12]: 0; Plant response rating, Foxtail, Giant [3, 14]: 0; Plant response rating, Kochia (kochia (Kochia scoparia); [14]): 60; Plant response rating, Pigweed [4, 12]: 60; Plant response rating, Pigweed [4, 14]: 50; Plant response rating, Ragweed [5, 12]: 0; Plant response rating, Ragweed [5, 14]: 20; Plant response rating, Wheat [6, 14]: 0; Plant response rating, Blackgrass [7, 14]: 40; Plant response rating, Galium [8, 14]: 60
